Literature values as cited in patent US6413525B1, “Methods of exfoliation using N-acetyl glucosamine” (Color Access, Inc., priority 1999, dated 2002).

Test system: skin
Details: as disclosed in WO97/12597

## CC(=O)N[C@H]1C(O)O[C@H](CO)[C@@H](O)[C@@H]1O (stereo partly drawn) [N-acetyl-D-glucosamine]
  efficacy as a topical desquamating agent: not found to be effective
